According to the NIST ThermoML archive (doi:10.1016/j.jct.2004.07.031):
Several values for one entry are separate records, joined by “and”; a condition that tells them apart may be missing. Equal values may be shown once. Numbers after ± are expanded uncertainties.

Test: molar heat capacity at constant pressure
Conditions: 101.33 kPa, Crystal, PPMS instrument (Quantum Design)

Structure (SMILES): O=P([O-])([O-])[O-].[La+3] [lanthanum orthophosphate]
- molar heat capacity at constant pressure (5.974 K): 0.03623 ± 0.0011 J/K/mol
- molar heat capacity at constant pressure (6.057 K): 0.03765 ± 0.0012 J/K/mol
- molar heat capacity at constant pressure (6.065 K): 0.03776 ± 0.0012 J/K/mol
- molar heat capacity at constant pressure (6.165 K): 0.03972 ± 0.0013 J/K/mol
- molar heat capacity at constant pressure (6.17 K): 0.03972 ± 0.0013 J/K/mol
- molar heat capacity at constant pressure (6.171 K): 0.03961 ± 0.0012 J/K/mol
- molar heat capacity at constant pressure (6.367 K): 0.04348 ± 0.0014 J/K/mol
- molar heat capacity at constant pressure (6.37 K): 0.04345 ± 0.0014 J/K/mol
- molar heat capacity at constant pressure (6.373 K): 0.04366 ± 0.0014 J/K/mol
- molar heat capacity at constant pressure (6.438 K): 0.04486 ± 0.0014 J/K/mol
- molar heat capacity at constant pressure (6.567 K): 0.04741 ± 0.0015 J/K/mol
- molar heat capacity at constant pressure (6.572 K): 0.04748 ± 0.0015 J/K/mol
- molar heat capacity at constant pressure (6.574 K): 0.04752 ± 0.0015 J/K/mol and 0.04753 ± 0.0015 J/K/mol
- molar heat capacity at constant pressure (6.768 K): 0.05148 ± 0.0016 J/K/mol
- molar heat capacity at constant pressure (6.773 K): 0.05174 ± 0.0016 J/K/mol
- molar heat capacity at constant pressure (6.774 K): 0.05167 ± 0.0016 J/K/mol
- molar heat capacity at constant pressure (6.812 K): 0.05274 ± 0.0016 J/K/mol
- molar heat capacity at constant pressure (6.968 K): 0.0563 ± 0.0018 J/K/mol
- molar heat capacity at constant pressure (6.973 K): 0.0564 ± 0.0018 J/K/mol
- molar heat capacity at constant pressure (6.976 K): 0.05661 ± 0.0018 J/K/mol
- molar heat capacity at constant pressure (7.087 K): 0.05926 ± 0.0019 J/K/mol
- molar heat capacity at constant pressure (7.169 K): 0.06123 ± 0.0019 J/K/mol
- molar heat capacity at constant pressure (7.175 K): 0.06142 ± 0.0019 J/K/mol
- molar heat capacity at constant pressure (7.176 K): 0.06139 ± 0.0019 J/K/mol
- molar heat capacity at constant pressure (7.188 K): 0.06178 ± 0.0019 J/K/mol
- molar heat capacity at constant pressure (7.371 K): 0.06581 ± 0.0021 J/K/mol
- molar heat capacity at constant pressure (7.377 K): 0.06689 ± 0.0021 J/K/mol
- molar heat capacity at constant pressure (7.381 K): 0.06684 ± 0.0021 J/K/mol
- molar heat capacity at constant pressure (7.56 K): 0.07178 ± 0.0022 J/K/mol
- molar heat capacity at constant pressure (7.57 K): 0.07164 ± 0.0022 J/K/mol
- molar heat capacity at constant pressure (7.575 K): 0.072 ± 0.0022 J/K/mol
- molar heat capacity at constant pressure (7.579 K): 0.07223 ± 0.0022 J/K/mol
- molar heat capacity at constant pressure (7.604 K): 0.07273 ± 0.0023 J/K/mol
- molar heat capacity at constant pressure (7.774 K): 0.07756 ± 0.0024 J/K/mol
- molar heat capacity at constant pressure (7.778 K): 0.07802 ± 0.0024 J/K/mol
- molar heat capacity at constant pressure (7.779 K): 0.07794 ± 0.0024 J/K/mol
- molar heat capacity at constant pressure (7.937 K): 0.08278 ± 0.0026 J/K/mol
- molar heat capacity at constant pressure (7.975 K): 0.08393 ± 0.0026 J/K/mol
- molar heat capacity at constant pressure (7.98 K): 0.08397 ± 0.0026 J/K/mol
- molar heat capacity at constant pressure (7.983 K): 0.08418 ± 0.0026 J/K/mol
- molar heat capacity at constant pressure (8.119 K): 0.08872 ± 0.0027 J/K/mol
- molar heat capacity at constant pressure (8.176 K): 0.09007 ± 0.0028 J/K/mol
- molar heat capacity at constant pressure (8.182 K): 0.09043 ± 0.0028 J/K/mol
- molar heat capacity at constant pressure (8.184 K): 0.09022 ± 0.0028 J/K/mol
- molar heat capacity at constant pressure (8.313 K): 0.09473 ± 0.0029 J/K/mol
- molar heat capacity at constant pressure (8.378 K): 0.09678 ± 0.003 J/K/mol
- molar heat capacity at constant pressure (8.383 K): 0.09686 ± 0.003 J/K/mol
- molar heat capacity at constant pressure (8.385 K): 0.09715 ± 0.003 J/K/mol
- molar heat capacity at constant pressure (8.584 K): 0.1041 ± 0.0032 J/K/mol
- molar heat capacity at constant pressure (8.589 K): 0.1043 ± 0.0032 J/K/mol
- molar heat capacity at constant pressure (8.592 K): 0.1046 ± 0.0032 J/K/mol
- molar heat capacity at constant pressure (8.642 K): 0.1065 ± 0.0033 J/K/mol
- molar heat capacity at constant pressure (8.696 K): 0.1085 ± 0.0033 J/K/mol
- molar heat capacity at constant pressure (8.785 K): 0.1119 ± 0.0034 J/K/mol
- molar heat capacity at constant pressure (8.792 K): 0.1125 ± 0.0035 J/K/mol
- molar heat capacity at constant pressure (8.794 K): 0.1122 ± 0.0035 J/K/mol
- molar heat capacity at constant pressure (8.987 K): 0.1198 ± 0.0037 J/K/mol
- molar heat capacity at constant pressure (8.993 K): 0.1201 ± 0.0037 J/K/mol
- molar heat capacity at constant pressure (8.996 K): 0.1202 ± 0.0037 J/K/mol
- molar heat capacity at constant pressure (9.07 K): 0.1232 ± 0.0038 J/K/mol
- molar heat capacity at constant pressure (9.158 K): 0.127 ± 0.0039 J/K/mol
- molar heat capacity at constant pressure (9.188 K): 0.1284 ± 0.0039 J/K/mol
- molar heat capacity at constant pressure (9.196 K): 0.131 ± 0.004 J/K/mol and 0.1286 ± 0.004 J/K/mol
- molar heat capacity at constant pressure (9.198 K): 0.1286 ± 0.004 J/K/mol
- molar heat capacity at constant pressure (9.393 K): 0.1371 ± 0.0042 J/K/mol
- molar heat capacity at constant pressure (9.398 K): 0.1378 ± 0.0042 J/K/mol
- molar heat capacity at constant pressure (9.4 K): 0.1349 ± 0.0041 J/K/mol
- molar heat capacity at constant pressure (9.447 K): 0.1398 ± 0.0043 J/K/mol
- molar heat capacity at constant pressure (9.586 K): 0.1462 ± 0.0045 J/K/mol
- molar heat capacity at constant pressure (9.598 K): 0.1469 ± 0.0045 J/K/mol
- molar heat capacity at constant pressure (9.602 K): 0.1471 ± 0.0045 J/K/mol
- molar heat capacity at constant pressure (9.675 K): 0.1505 ± 0.0046 J/K/mol
- molar heat capacity at constant pressure (9.792 K): 0.1565 ± 0.0048 J/K/mol
- molar heat capacity at constant pressure (9.8 K): 0.1568 ± 0.0048 J/K/mol
- molar heat capacity at constant pressure (9.805 K): 0.157 ± 0.0048 J/K/mol
- molar heat capacity at constant pressure (9.822 K): 0.1578 ± 0.0049 J/K/mol
